The results in this text go back to patent publication US20250339462A1, “CANCER TREATMENT USING ULTRA-HIGH CONCENTRATION GASEOUS NITRIC OXIDE AND A CHECKPOINT INHIBITOR” (Beyond Air, Inc., priority 2022, published 2025).

The test system of one test is CT26 tumor-bearing mice. The experiment in a line: CT26 tumor model, UNO + anti-mPD-1 + CpG-B. Type of test: in vivo, mouse. On the procedure:
Preparation of cancer cells for injection—Mouse colon carcinoma CT26.WT cells (ATCC, Cat no. CRL-2638) suspended in Hanks' Balanced Salt Solution (HBSS) (Biological Industries, Israel), at a concentration of 5.0×10^6 cells/ml, were freshly prepared on the day of cancer model induction. Cells were grown to 70% confluency and were harvested using trypsin (Biological Industries, Israel), and counted using a cell counter device. The cells were then centrifuged at 1,200 rpm (241×g) for 8 minutes, and the pellet was re-suspended in ice cold HBSS at 5.0×10^6 in 1 ml (5.0×10^5 cells in 100 μl solution). Cell viability was >90% as determined by trypan blue staining prior to inoculation to mice. At the point of inoculation, cells were at passage 8 at most.
Inoculation of CT26 cancer cells to mice—100 μl/mouse of the_CT26 cancer cells suspension (concentration of 5.0×10^6 cells/ml) were inoculated subcutaneously (s.c.) to the right flank of male BALB/c mice, which were 10 weeks of age (Envigo, the Netherlands). Five days later, CT26 cells at the same dose were inoculated s.c. to the left flank of each mouse. Ten days post primary tumor inoculation tumor-bearing mice were divided into the following groups (day 0) as depicted in Table 2 below and treated according to the timeline shown in FIG. 20:
Mice were followed up for totally 52 days. Tumor take was monitored by palpation of the flank and tumor growth was monitored by measurement of the tumor dimensions using a digital caliper. Mice were sacrificed and excluded from the study if their total tumor volume was >1500 mm^3 or their distress scoring >12 as was accepted according to the IACUC IL-2112-105-5.
UNO treatment—On the day of treatment, mice were anesthetized by an intraperitoneal (i.p.) injection of 100 mg/kg ketamine and 10 mg/kg of xylazine hydrochloride solution. Tumor-bearing mice were treated with 50,000 ppm of UNO delivered into the tumor by a 23 G needle over 5 minutes, at 0.2 LPM. After treatment, all mice were warmed and closely monitored until complete recovery was observed. […]

Another test relates to 4T1 tumor-bearing mice. The experiment in a line: 4T1 breast cancer model, UNO/Anti-CTLA-4 Repeated dose study. Type of test: in vivo, mouse. On the procedure: Preparation of 4T1 cells: Cancer cell suspension, in Hanks' Balanced Salt Solution (HBSS) (Biological Industries, Israel), at a concentration of 5.0×10^6 cells/ml was freshly prepared on the day of the cancer model induction. Cells were grown to a 70-80% confluency and harvested using trypsin. The cells were centrifuged at 1,200 revolutions per minute (rpm)—241 G for 8 minutes, then the pellet was re-suspended in 1 ml of HBSS. The cells were counted using an automated cell counter and a suspension with a concentration of 5.0×10^6 cells/ml was prepared. Cell viability must be above 90% before cell inoculation to the mice, otherwise new cells will need to be prepared. At the point of inoculation, cells will be at passage 8 at most. The cell suspension was then aspirated into a 1 ml syringe with a 27 G needle, for subcutaneous (s.c.) injection. All injection volume was used and was not re-introduced into the stock solution.
Inoculation of 4T1 cancer cells to mice—Cancer cell suspension at a concentration of 5.0×10^6 cells/ml was inoculated to the right flank of animals at a volume of 100 μl per mouse. Female Balb/c mice were inoculated with 100 μl of 5.0×10^6 4T1 cells/ml. Administration was performed as soon as possible following cell preparation and after manual shaking prior to withdrawal of cell suspension. Injections were performed using a 1 ml syringe and a 27 G needle where withdrawal is done without the needle.
UNO and N2 treatment—On the day of treatment, mice were anesthetized by an intraperitoneal (i.p.) injection of 100 mg/kg of ketamine and 10 mg/kg of xylazine hydrochloride solution. Tumor-bearing mice were treated with either N2 or UNO at 50,000 ppm or 100,000 ppm. UNO at 50,000 ppm was administered intratumorally by a 23 G needle for 10 minutes, at 0.2 LPM and 2 bar exit pressure. UNO at 100,000 ppm was administered intratumorally by a 23 G needle for 2 minutes, at 0.2 LPM and 2 bar exit pressure. After treatment, all mice were warmed and closely monitored until complete recovery was observed.
Injection of anti-CTLA-4—Anti-CTLA-4 was administered up to 5 times intraperitoneally (i.p.) at a dose of 5 mg/kg, i.p., using a 1 ml syringe with a 27 G needle. The injection was administered to approximately the same location each time.
UNO/Anti-CTLA-4 Repeated dose study—Balb/c mice (60) were inoculated with mouse breast cancer carcinoma (4T1) cells injected subcutaneously (s.c.) to the right flank. […]
Primary tumor volume progression was monitored twice a week by measuring the tumor using a digital caliper calculated as: […]
Mice survival was evaluated. Mice that reached a tumor volume of ≥1500 mm^3 and/or a score of 12 were humanely euthanized, and the time of death was recorded. Metastases development was evaluated postmortem.

“Also recorded” adds a separate entry of the source.

Regarding `[N]=O` [UNO, nitric oxide], the “Percentage of mice with primary tumor complete regression” value in the test on CT26 tumor-bearing mice (42 days after treatments (FIG. 16)) is given as 10%. Moreover, the “Distant tumor rejection, percentage of mice” value in the test on CT26 tumor-bearing mice (42 days following treatments (FIG. 17)) is listed as 11%. In addition, the “Percentage of group surviving” value in the test on CT26 tumor-bearing mice (52 days following primary tumor inoculation) came out at 10%. Besides, in the test on 4T1 tumor-bearing mice (FIG. 14C, Cox model), the “Survival hazard ratio vs anti-mCTLA-4” value stood at 0.16 and the “Survival hazard ratio vs untreated” value is 0.31. Besides, the “Mice survival vs anti-mCTLA-4 monotherapy” value with 4T1 tumor-bearing mice (UNO twice (FIG. 14C)) is listed as “prolonged survival; also recorded: significantly prolongs mice survival”. Further, the “Tumors smaller compared to only anti-mCTLA-4” value in the test on 4T1 tumor-bearing mice (only UNO, 100,000 ppm 2 min twice, day 13 after first UNO treatment, P=0.1158) came to 12.9%.
